Results from ChEMBL document CHEMBL4411296, “Design and development of Isatin-triazole hydrazones as potential inhibitors of microtubule affinity-regulating kinase 4 for the therapeutic management of cell proliferation and metastasis” (Eur J Med Chem, 2019).

Assays:
Format in all cases: functional
[1] = test system: CCRF-CEM; assay: Growth inhibition of human CCRF-CEM cells assessed as cell growth at 10 uM after 48 hrs by sulforhodamine B assay relative to control; conditions: read-out: Activity
[2] = test system: HL-60(TB); assay: Growth inhibition of human HL-60(TB) cells assessed as cell growth at 10 uM after 48 hrs by sulforhodamine B assay relative to control; conditions: HL-60, 48 h, read-out: Activity
[3] = test system: K562; assay: Growth inhibition of human K562 cells assessed as cell growth at 10 uM after 48 hrs by sulforhodamine B assay relative to control; conditions: K562, 48 h, read-out: Activity
[4] = test system: RPMI-8226; assay: Growth inhibition of human RPMI8226 cells assessed as cell growth at 10 uM after 48 hrs by sulforhodamine B assay relative to control; conditions: RPMI-8226, 48 h, read-out: Activity
[5] = test system: A549; assay: Growth inhibition of human A549/ATCC cells assessed as cell growth at 10 uM after 48 hrs by sulforhodamine B assay relative to control; conditions: A549, 48 h, read-out: Activity
[6] = test system: HOP-62; assay: Growth inhibition of human HOP62 cells assessed as cell growth at 10 uM after 48 hrs by sulforhodamine B assay relative to control; conditions: HOP-62, 48 h, read-out: Activity
[7] = test system: HOP-92; assay: Growth inhibition of human HOP92 cells assessed as cell growth at 10 uM after 48 hrs by sulforhodamine B assay relative to control; conditions: HOP-92, 48 h, read-out: Activity
[8] = test system: NCI-H23; assay: Growth inhibition of human NCI-H23 cells assessed as cell growth at 10 uM after 48 hrs by sulforhodamine B assay relative to control; conditions: NCI-H23, 48 h, read-out: Activity
[9] = test system: NCI-H460; assay: Growth inhibition of human NCI-H460 cells assessed as cell growth at 10 uM after 48 hrs by sulforhodamine B assay relative to control; conditions: NCI-H460, 48 h, read-out: Activity
[10] = test system: NCI-H522; assay: Growth inhibition of human NCI-H522 cells assessed as cell growth at 10 uM after 48 hrs by sulforhodamine B assay relative to control; conditions: NCI-H522, 48 h, read-out: Activity
[11] = test system: COLO 205; assay: Growth inhibition of human COLO205 cells assessed as cell growth at 10 uM after 48 hrs by sulforhodamine B assay relative to control; conditions: COLO 205, 48 h, read-out: Activity
[12] = test system: HCT-15; assay: Growth inhibition of human HCT15 cells assessed as cell growth at 10 uM after 48 hrs by sulforhodamine B assay relative to control; conditions: HCT-15, 48 h, read-out: Activity
[13] = test system: HT-29; assay: Growth inhibition of human HT-29 cells assessed as cell growth at 10 uM after 48 hrs by sulforhodamine B assay relative to control; conditions: HT-29, 48 h, read-out: Activity
[14] = test system: KM12; assay: Growth inhibition of human KM12 cells assessed as cell growth at 10 uM after 48 hrs by sulforhodamine B assay relative to control; conditions: KM12, 48 h, read-out: Activity
[15] = test system: SNB-75; assay: Growth inhibition of human SNB75 cells assessed as cell growth at 10 uM after 48 hrs by sulforhodamine B assay relative to control; conditions: SNB-75, 48 h, read-out: Activity
[16] = test system: U-251; assay: Growth inhibition of human U251 cells assessed as cell growth at 10 uM after 48 hrs by sulforhodamine B assay relative to control; conditions: U-251, 48 h, read-out: Activity
[17] = test system: LOX IMVI; assay: Growth inhibition of human LOXIMVI cells assessed as cell growth at 10 uM after 48 hrs by sulforhodamine B assay relative to control; conditions: read-out: Activity
[18] = test system: Malme-3M; assay: Growth inhibition of human MALME-3M cells assessed as cell growth at 10 uM after 48 hrs by sulforhodamine B assay relative to control; conditions: read-out: Activity
[19] = test system: SK-MEL-28; assay: Growth inhibition of human SK-MEL-28 cells assessed as cell growth at 10 uM after 48 hrs by sulforhodamine B assay relative to control; conditions: SK-MEL-28, 48 h, read-out: Activity
[20] = test system: SK-MEL-5; assay: Growth inhibition of human SK-MEL-5 cells assessed as cell growth at 10 uM after 48 hrs by sulforhodamine B assay relative to control; conditions: SK-MEL-5, 48 h, read-out: Activity
[21] = test system: UACC-257; assay: Growth inhibition of human UACC257 cells assessed as cell growth at 10 uM after 48 hrs by sulforhodamine B assay relative to control; conditions: UACC-257, 48 h, read-out: Activity
[22] = test system: IGROV-1; assay: Growth inhibition of human IGROV1 cells assessed as cell growth at 10 uM after 48 hrs by sulforhodamine B assay relative to control; conditions: IGROV-1, 48 h, read-out: Activity
[23] = test system: OVCAR-3; assay: Growth inhibition of human OVCAR3 cells assessed as cell growth at 10 uM after 48 hrs by sulforhodamine B assay relative to control; conditions: OVCAR-3, 48 h, read-out: Activity
[24] = test system: OVCAR-4; assay: Growth inhibition of human OVCAR4 cells assessed as cell growth at 10 uM after 48 hrs by sulforhodamine B assay relative to control; conditions: OVCAR-4, 48 h, read-out: Activity
[25] = test system: OVCAR-5; assay: Growth inhibition of human OVCAR5 cells assessed as cell growth at 10 uM after 48 hrs by sulforhodamine B assay relative to control; conditions: OVCAR-5, 48 h, read-out: Activity
[26] = test system: A498; assay: Growth inhibition of human A498 cells assessed as cell growth at 10 uM after 48 hrs by sulforhodamine B assay relative to control; conditions: A498, 48 h, read-out: Activity
[27] = test system: CAKI-1; assay: Growth inhibition of human Caki1 cells assessed as cell growth at 10 uM after 48 hrs by sulforhodamine B assay relative to control; conditions: CAKI-1, 48 h, read-out: Activity
[28] = test system: RXF 393; assay: Growth inhibition of human RXF393 cells assessed as cell growth at 10 uM after 48 hrs by sulforhodamine B assay relative to control; conditions: RXF 393, 48 h, read-out: Activity
[29] = test system: SN12C; assay: Growth inhibition of human SN12C cells assessed as cell growth at 10 uM after 48 hrs by sulforhodamine B assay relative to control; conditions: read-out: Activity
[30] = test system: UO-31; assay: Growth inhibition of human UO31 cells assessed as cell growth at 10 uM after 48 hrs by sulforhodamine B assay relative to control; conditions: UO-31, 48 h, read-out: Activity
[31] = test system: DU-145; assay: Growth inhibition of human DU145 cells assessed as cell growth at 10 uM after 48 hrs by sulforhodamine B assay relative to control; conditions: DU-145, 48 h, read-out: Activity
[32] = test system: MDA-MB-231; assay: Growth inhibition of human MDA-MB-231 cells assessed as cell growth at 10 uM after 48 hrs by sulforhodamine B assay relative to control; conditions: MDA-MB-231, 48 h, read-out: Activity
[33] = test system: Hs-578T; assay: Growth inhibition of human Hs 578T cells assessed as cell growth at 10 uM after 48 hrs by sulforhodamine B assay relative to control; conditions: read-out: Activity

SMILES	growth at 10 µM [1]	growth at 10 µM [2]	growth at 10 µM [3]	growth at 10 µM [4]	growth at 10 µM [5]	growth at 10 µM [6]	growth at 10 µM [7]	growth at 10 µM [8]	growth at 10 µM [9]	growth at 10 µM [10]	growth at 10 µM [11]	growth at 10 µM [12]	growth at 10 µM [13]	growth at 10 µM [14]	growth at 10 µM [15]	growth at 10 µM [16]	growth at 10 µM [17]	growth at 10 µM [18]	growth at 10 µM [19]	growth at 10 µM [20]	further results
COc1ccc(Cn2cc(C(=O)N/N=C3/C(=O)Nc4ccc(F)cc43)nn2)cc1	95%	101%	97.2%	99.1%	94.2%	102%	98.8%	99.5%	106%	86.1%	111%	103%	91.8%	95.8%	104%	99.9%	102%	104%	116%	103%	growth at 10 µM [21]: 91%; growth at 10 µM [22]: 101%; growth at 10 µM [23]: 112%; growth at 10 µM [24]: 101%; growth at 10 µM [25]: 94.7%; growth at 10 µM [26]: 83.4%; growth at 10 µM [27]: 97.4%; growth at 10 µM [28]: 110%; growth at 10 µM [29]: 94.6%; growth at 10 µM [30]: 93.2%; growth at 10 µM [31]: 103%; growth at 10 µM [32]: 106%; growth at 10 µM [33]: 111%
COc1ccc(Cn2cc(C(=O)N/N=C3/C(=O)Nc4c(C)cccc43)nn2)cc1	82.8%	78.9%	63.2%	90%	85.3%	106%	51.3%	89.1%	73%	77.5%	108%	68%	67.5%	95.6%	27.3%	108%	75.3%	40.5%	94.9%	93.8%	growth at 10 µM [21]: 93.7%; growth at 10 µM [22]: 84.8%; growth at 10 µM [23]: 46.7%; growth at 10 µM [24]: -28.2%; growth at 10 µM [25]: 93.6%; growth at 10 µM [26]: 101%; growth at 10 µM [27]: 77.1%; growth at 10 µM [28]: 81.9%; growth at 10 µM [29]: 62.1%; growth at 10 µM [30]: 14.8%; growth at 10 µM [31]: 60.4%; growth at 10 µM [32]: 51%; growth at 10 µM [33]: 84.1%
COc1ccc(Cn2cc(C(=O)N/N=C3/C(=O)Nc4ccccc43)nn2)cc1	104%	93.3%	90.5%	105%	98.4%	104%	112%	103%	109%	87.8%	108%	105%	99.2%	101%	95.3%	92.2%	102%	97.2%	104%	102%	growth at 10 µM [21]: 102%; growth at 10 µM [22]: 97.5%; growth at 10 µM [23]: 112%; growth at 10 µM [24]: 108%; growth at 10 µM [25]: 93%; growth at 10 µM [26]: 96%; growth at 10 µM [27]: 93.3%; growth at 10 µM [28]: 101%; growth at 10 µM [29]: 96.3%; growth at 10 µM [30]: 84.8%; growth at 10 µM [31]: 104%; growth at 10 µM [32]: 101%; growth at 10 µM [33]: 109%
COc1ccc(Cn2cc(C(=O)N/N=C3/C(=O)Nc4ccc(Cl)cc43)nn2)cc1	94.7%	93.2%	91.2%	109%	103%	112%	116%	104%	102%	90.6%	117%	109%	93.7%	97.7%	115%	107%	108%	95%	113%	96.7%	growth at 10 µM [21]: 113%; growth at 10 µM [22]: 106%; growth at 10 µM [23]: 109%; growth at 10 µM [24]: 100%; growth at 10 µM [25]: 114%; growth at 10 µM [26]: 96.6%; growth at 10 µM [27]: 101%; growth at 10 µM [28]: 103%; growth at 10 µM [29]: 101%; growth at 10 µM [30]: 90.7%; growth at 10 µM [31]: 102%; growth at 10 µM [32]: 113%; growth at 10 µM [33]: 112%
COc1ccc(Cn2cc(C(=O)N/N=C3/C(=O)Nc4c(Cl)cccc43)nn2)cc1	106%	97.3%	89.2%	106%	102%	110%	105%	99.3%	99.7%	84%	114%	107%	97%	107%	82%	102%	93.8%	99.7%	115%	101%	growth at 10 µM [21]: 92.9%; growth at 10 µM [22]: 103%; growth at 10 µM [23]: 113%; growth at 10 µM [24]: 104%; growth at 10 µM [25]: 123%; growth at 10 µM [26]: 93.8%; growth at 10 µM [27]: 94.4%; growth at 10 µM [28]: 109%; growth at 10 µM [29]: 95.8%; growth at 10 µM [30]: 93.5%; growth at 10 µM [31]: 105%; growth at 10 µM [32]: 98.5%; growth at 10 µM [33]: 97.5%
COc1ccc(Cn2cc(C(=O)N/N=C3/C(=O)Nc4ccc(F)c(Cl)c43)nn2)cc1	109%	78.7%	90.8%	116%	98%	112%	129%	98%	108%	84%	115%	113%	98%	101%	103%	103%	100%	103%	115%	99.9%	growth at 10 µM [21]: 100%; growth at 10 µM [22]: 110%; growth at 10 µM [23]: 105%; growth at 10 µM [24]: 104%; growth at 10 µM [25]: 122%; growth at 10 µM [26]: 91.3%; growth at 10 µM [27]: 96.8%; growth at 10 µM [28]: 104%; growth at 10 µM [29]: 103%; growth at 10 µM [30]: 92.4%; growth at 10 µM [31]: 96.6%; growth at 10 µM [32]: 109%; growth at 10 µM [33]: 112%
